Measurements taken from patent US10253007B2, “Taxanes compounds, preparation method therefor, and uses thereof” (Jiangsu Tasly Diyi Pharmaceutical Co., Ltd., priority 2013, dated 2019).
Where two headings read alike, the source gives them in different places.

What was measured:
[1] = MTT assay, proliferation inhibition; format: cell-based; conditions: Homo sapiens, LN-18 gastric cancer, read-out: Proliferation inhibition rate
Source text: (§1) 1. Cytotoxicity Assay Using Human Tumor Cell Lines
(§2) Paclitaxel was used as the positive drug.

A2780 ovarian cancer = experiment: MTT assay, proliferation inhibition; format: cell-based; conditions: Homo sapiens, read-out: Proliferation inhibition rate
Source text: as §1, §2

A375 melanoma = experiment: MTT assay, proliferation inhibition; format: cell-based; conditions: Homo sapiens, A-375, read-out: Proliferation inhibition rate
Source text: as §1, §2

[2] = tested on: A549 non-small cell lung cancer; experiment: MTT assay, proliferation inhibition; format: cell-based; conditions: Homo sapiens, read-out: Proliferation inhibition rate
Source text: as §1, §2

B16 melanoma = experiment: MTT assay, proliferation inhibition; format: cell-based; conditions: read-out: Proliferation inhibition rate
Source text: as §1, §2

BGC-823 gastric cancer = experiment: MTT assay, proliferation inhibition; format: cell-based; conditions: Homo sapiens, read-out: Proliferation inhibition rate
Source text: as §1, §2

DU145 prostate cancer = experiment: MTT assay, proliferation inhibition; format: cell-based; conditions: Homo sapiens, DU-145, read-out: Proliferation inhibition rate
Source text: as §1, §2

HCT 116 colon cancer = experiment: MTT assay, proliferation inhibition; format: cell-based; conditions: Homo sapiens, read-out: Proliferation inhibition rate
Source text: as §1, §2

HL60 leukemia = experiment: MTT assay, proliferation inhibition; format: cell-based; conditions: Homo sapiens, HL-60, read-out: Proliferation inhibition rate
Source text: as §1, §2

HT29 colon cancer = experiment: MTT assay, proliferation inhibition; format: cell-based; conditions: Homo sapiens, HT-29, read-out: Proliferation inhibition rate
Source text: as §1, §2

HeLa cervical cancer = experiment: MTT assay, proliferation inhibition; format: cell-based; conditions: Homo sapiens, read-out: Proliferation inhibition rate
Source text: as §1, §2

K562 leukemia = experiment: MTT assay, proliferation inhibition; format: cell-based; conditions: Homo sapiens, read-out: Proliferation inhibition rate
Source text: as §1, §2

LNCaP prostate cancer = experiment: MTT assay, proliferation inhibition; format: cell-based; conditions: Homo sapiens, read-out: Proliferation inhibition rate
Source text: as §1, §2

MCF-7 breast cancer = experiment: MTT assay, proliferation inhibition; format: cell-based; conditions: Homo sapiens, MCF7, read-out: Proliferation inhibition rate
Source text: as §1, §2

MDA-MB-436 breast cancer = experiment: MTT assay, proliferation inhibition; format: cell-based; conditions: Homo sapiens, read-out: Proliferation inhibition rate
Source text: as §1, §2

[3] = tested on: NCI-H460 non-small cell lung cancer; experiment: MTT assay, proliferation inhibition; format: cell-based; conditions: Homo sapiens, read-out: Proliferation inhibition rate
Source text: as §1, §2

[4] = tested on: breast cancer cell line MCF-7; experiment: IC50 values on breast cancer cell line MCF-7; format: cell-based; conditions: Homo sapiens
Source text: From the activity evaluation data of the above-mentioned preliminary screen, it can be seen that the series of taxanes derivatives synthesized in the present invention have activity (although the activity of PCMI-43 is weakened). Afterward, most of the compounds are picked up from these derivatives to examine their IC50 values on breast cancer cell line MCF-7. Paclitaxel is used as the positive control drug. Experiments for each compound were independently repeated for three times and multiple holes were used in each experiment. The exposure time of drugs was 72 hours.

[5] = Caco-2 cell monolayer membrane transport assay; conditions: human; for recovery: Caco-2, Recovery rate in mass
Source text: (§3) Caco-2 Cell Monolayer Membrane Transport Assay
(§4) Human-derived colorectal adenocarcinoma cell line Caco-2 cell monolayer model was used to study the bidirectional transport of the target compounds from the apical (AP) side to the basolateral (BL) side and from BL side to AP side. HPLC was used for quantitative analysis to calculate transport parameters, apparent permeability coefficient (Papp) and the efflux ratio.

Caco-2 cell monolayer = Caco-2 cell monolayer membrane transport assay; conditions: for efflux ratio / Papp A-B / Papp B-A: Caco-2 cell line (21 days); for efflux ratio: Papp B-A/Papp A-B; for Papp A-B / Papp B-A: bidirectional transport, Table 5
Source text: as §3, §4

16 cancer cell lines = experiment: Preliminary cytotoxicity evaluation on 16 cancer cell lines (MTT); format: cell-based, human; conditions: preliminary screen at 1 μM, compared with paclitaxel
Source text: as §1, §2
In both cancer cell lines of A549 and B16, the cytotoxicity of the taxanes derivatives is slightly lower than that of the positive control drug.

[6] = Caco-2, Papp A-B, Mean, Caco-2, A-B, mean of two samples
[7] = Caco-2, Papp A-B, Sample-01, Caco-2, A-B, Sample-01
[8] = Caco-2, Papp A-B, Sample-02, Caco-2, A-B, Sample-02
[9] = Mean, Caco-2, A-B, mean of two samples
[10] = Sample-01, Caco-2, A-B, Sample-01
[11] = Sample-02, Caco-2, A-B, Sample-02
[12] = MCF7, 72 h, read-out: MCF-7(IC50, nM)
[13] = Caco-2, Papp A-B, Caco-2 cell line (21 days), bidirectional transport, Table 5

Structure (SMILES) | inhibition at 1 µM [1] [%] | inhibition at 1 µM (A2780 ovarian cancer) [%] | inhibition at 1 µM (A375 melanoma) [%] | inhibition at 1 µM [2] [%] | inhibition at 1 µM (B16 melanoma) [%] | inhibition at 1 µM (BGC-823 gastric cancer) [%] | inhibition at 1 µM (DU145 prostate cancer) [%] | inhibition at 1 µM (HCT 116 colon cancer) [%] | inhibition at 1 µM (HL60 leukemia) [%] | inhibition at 1 µM (HT29 colon cancer) [%] | inhibition at 1 µM (HeLa cervical cancer) [%] | inhibition at 1 µM (K562 leukemia) [%] | inhibition at 1 µM (LNCaP prostate cancer) [%] | inhibition at 1 µM (MCF-7 breast cancer) [%] | inhibition at 1 µM (MDA-MB-436 breast cancer) [%] | inhibition at 1 µM [3] [%] | Papp A→B [5, 7] [×10⁻⁶ cm/s] | Papp A→B [5, 8] [×10⁻⁶ cm/s] | recovery [5, 9] [%] | recovery [5, 10] [%] | further results
COC(=O)O[C@H]1C(=O)[C@]2(C)[C@@H](OC)C[C@H]3OC[C@@]3(OC(C)=O)[C@H]2[C@H](OC(=O)c2ccccc2)[C@]2(O)C[C@H](OC(=O)[C@H](O)[C@@H](NC(=O)OC(C)(C)C)c3ccccc3)C(C)=C1C2(C)C [PCMI-26] | 89 | 95.8 | 94.2 | 66.2 | 69.7 | 89.2 | 86.2 | 81.1 | 96.8 | 88.8 | 101 | 91.4 | 79.8 | 95.5 | 76.3 | 86.4 | 8.45 | 9.06 | 81.4 | 80.9 | IC50 ([4]; MCF7, MCF-7, exposure 72 hours, mean±SD of three independent experiments, read-out: MCF-7(IC50)): 1.4 ± 0.1 nM; Papp A→B [5, 6]: 8.75 ×10⁻⁶ cm/s; recovery [5, 11]: 82%; efflux ratio (Caco-2 cell monolayer): 4.22; Papp A-B (Caco-2 cell monolayer): 6.91 10^−6 cm/s; Papp B-A (Caco-2 cell monolayer): 29.18 10^−6 cm/s
CO[C@H]1C(=O)[C@]2(C)[C@@H](OC(=O)N(C)C)C[C@H]3OC[C@@]3(OC(C)=O)[C@H]2[C@H](OC(=O)c2ccccc2)[C@]2(O)C[C@H](OC(=O)[C@H](O)[C@H](CC(C)C)NC(=O)OC(C)(C)C)C(C)=C1C2(C)C [PCMI-34] | 90.6 | 95 | 104 | 73.5 | 81.4 | 94.7 | 86.9 | 60.1 | 98.1 | 89.2 | 102 | 92.9 | 88.7 | 101 | 81.2 | 86.2 | 11.8 | 9.54 | 67.4 | 71.2 | IC50 [4, 12]: 13.26 ± 0.12 nM; Papp B→A ([5]; Caco-2): 30.9 ×10⁻⁶ cm/s; efflux ratio ([5]; Caco-2): 1.59; Papp A→B [5, 13]: 19.4 ×10⁻⁶ cm/s; Papp A→B [5, 6]: 10.7 ×10⁻⁶ cm/s; Papp A→B ([5]; Caco-2, Papp A-to-B, Caco-2): > 10 ×10⁻⁶ cm/s; recovery [5, 11]: 63.6%; membrane permeability (in words) (Caco-2 cell monolayer; Caco-2 monolayer): highly permeable substrates
COC(=O)O[C@H]1C[C@H]2OC[C@@]2(OC(C)=O)[C@H]2[C@H](OC(=O)c3ccccc3)[C@]3(O)C[C@H](OC(=O)[C@H](O)[C@H](CC(C)C)NC(=O)OC(C)(C)C)C(C)=C([C@@H](OC)C(=O)[C@]12C)C3(C)C [PCMI-39] | 94.1 | 94.9 | 90.2 | 67.4 | 72.3 | 91.7 | 84.9 | 57.1 | 99.1 | 88.4 | 100 | 92.2 | 82.8 | 100 | 78.4 | 81.6 | 6.13 | 8.81 | 64.2 | 71.7 | IC50 [4, 12]: 2.81 ± 0.02 nM; Papp A→B [5, 6]: 7.47 ×10⁻⁶ cm/s; recovery [5, 11]: 56.7%; Papp A-B (Caco-2 cell monolayer): 7.16 10^−6 cm/s; Papp B-A (Caco-2 cell monolayer): 36.37 10^−6 cm/s
CO[C@H]1C(=O)[C@]2(C)CC[C@H]3OC[C@@]3(OC(C)=O)[C@H]2[C@H](OC(=O)c2ccccc2)[C@]2(O)C[C@H](OC(=O)[C@H](O)[C@H](CC(C)C)NC(=O)OC(C)(C)C)C(C)=C1C2(C)C [PCMI-42] | 94.8 | 95.6 | 104 | 77.6 | 78.3 | 92.8 | 87 | 66.1 | 97.6 | 88.2 | 99.3 | 94.3 | 82.9 | 97.8 | 79.5 | 84.3 | 7.85 | 6.49 | 74.2 | 81 | IC50 [4, 12]: 3.06 ± 0.08 nM; Papp A→B [5, 13]: 7.54 ×10⁻⁶ cm/s; recovery [5, 11]: 67.3%; efflux ratio (Caco-2 cell monolayer): 5.12; Papp B-A (Caco-2 cell monolayer): 38.57 10^−6 cm/s
CO[C@H]1C(=O)[C@]2(C)C=C[C@@H](O)[C@](CO)(OC(C)=O)[C@H]2[C@H](OC(=O)c2ccccc2)[C@]2(O)C[C@H](OC(=O)[C@H](O)[C@@H](NC(=O)c3ccccc3)c3ccccc3)C(C)=C1C2(C)C [PCMI-43] | 73.2 | 70 | 77.8 | 53.9 | 13.3 | 38.2 | 63.4 | 46.1 | 76.3 | 36.4 | 52 | 80.9 | 61.2 | 68.3 | 35.7 | 62.1 | 3.21 | 2.89 | 72 | 76.6 | cytotoxicity (in words) (16 cancer cell lines): weakened; Papp A→B [5, 6]: 3.05 ×10⁻⁶ cm/s; recovery [5, 11]: 67.5%
